# Values of other authors in patent US8828877B2, “Etching solution and trench isolation structure-formation process employing the same” (AZ Electronic Materials USA Corp., priority 2009, dated 2014).
# Columns and labels:
# [1] = for δH: Hansen solubility parameter, strength of hydrogen bond; for Organic solvent δH: as given in Table 2 for the solvent of the etching solution
# [2] = in water at 20° C.; "any" = can mix with water in any proportion
SMILES,δH [1],Organic solvent δH [1],Saturation solubility [2]
CC(C)=O [Acetone],7.0,7.0,any
C=CCOC(=O)CC(C)=O [Allyl acetoacetate],8.6,,5.0 wt %
CCOCC [Diethyl ether],5.1,,6.9 wt %
CCCCOCCOCCOC(C)=O [Diethyl glycol butyl ether acetate],8.2,,6.5 wt %
CCCCOCCOCCO [Diethyl glycol monobutyl ether],10.6,,6.5 wt %
CCC(=O)CC [Diethyl ketone],4.7,,5.0 wt %
COCOC [Dimethoxymethane],8.6,,32.3 wt %
COC [Dimethyl ether],5.7,,32.8 wt %
COC(C)COC(C)COC(C)=O (stereo not shown) [Dipropylene glycol monomethyl ether acetate],8.0,,12.0 wt %
CCOC(C)=O [Ethyl acetate],7.2,,
COCCOC [Ethylene glycol dimethyl ether],,,any
CCOCCOC(C)=O [Ethylene glycol monoethyl ether acetate],10.6,,23.0 wt %
COCCOC(C)=O [Ethylene glycol monomethyl ether acetate],11.6,10.6,any
C=C(C)C(=O)O [Methacrylic acid],10.2,,9.7 wt %
COC(C)=O [Methyl acetate],7.6,,25.0 wt %
COC(=O)CC(C)=O [Methyl acetoacetate],8.9,,46.0 wt %
CCOC [Methyl ethyl ether],6.2,,≥ 5.0 wt %
CC(=O)C=O [Methylglyoxal],,,≥ 40.0 wt %
CCC=O [Propion aldehyde],,,20.0 wt %
CCOCC(C)OC(C)=O (stereo not shown) [Propylene glycol monoethyl ether acetate],9.0,,≥ 5.0 wt %
CCOCC(C)O (stereo not shown) [Propylene glycol monoethyl ether],10.5,,any
COCC(C)OC(C)=O (stereo not shown) [Propylene glycol monomethyl ether acetate],9.8,9.0,19.0 wt %
COCC(C)O (stereo not shown) [Propylene glycol monomethyl ether],11.6,10.5,
COC(C)COC(C)COC(C)CO (stereo not shown) [Tripropylene glycol monomethyl ether],10.4,,any
"CC(C)O [isopropyl alcohol, reference compound]",16.4,16.4,
